The record followed here is US6610333B1, “Feed supplement for arthropods” (Universita Degli Studi di Milano, priority 1998, dated 2003).

Experiment [1] concerns membrane vesicles purified from the midgut tissue of B. mori larvae. Description: Uptake of radiolabeled leucine into membrane vesicles from B. mori larval midgut. Type of experiment: biochemical, Bombyx mori. The following applies: 0.2 mM test substance, 0.1 mM L-leucine, pH 10.8, 7 seconds incubation; None (control) 450 ± 20. As for the experimental part: The effect of different esters and aminoesters was tested in vitro by measuring the uptake of radiolabeled leucine into membrane vesicles purified from the midgut tissue of B. mori larvae.
Uptakes were measured by incubating 10 μl of membrane vesicles and 40 μl of a isosmotic mixture buffered at pH 10.8 and containing 0.1 mM L-leucine, 30 μCi/ml of L-[3H]-leucine as a tracer and 0.2 mM of the substances indicated. Incubations were stopped after 7 seconds by 75-fold dilution in an ice-cold isotonic saline and filtration through cellulose filters (0.2 μm mesh). Filters were then counted for radioactivity in a scintillation counter and data were expressed per mg of membrane proteins. Vesicles were prepared by calcium precipitation and differential centrifugation from Bombyx mori larval midgut according to standard biochemical protocols.

In another experiment the test system is Bombyx mori larvae. Description: Rearing of Bombyx mori larvae on artificial diet supplemented with ester. The following applies: 130 mg per 1 kg of diet; for Percent of mortality: first three larval instars. It counts as in vivo.

As for `CCC(C)CC(=O)OC` (stereo not shown) [3-methylvaleric methyl ester], in experiment [1], the Leucine uptake is listed as 800 ± 30 pmol/7s/mg membrane protein.
On the same count and under the same terms, to `COC(=O)CCC(C)C` [4-methylvaleric methyl ester] belongs 2600 ± 80 pmol/7s/mg membrane protein; to `CCOC(=O)[C@@H](N)CC(C)C` [Leucine ethyl ester], 2200 ± 75 pmol/7s/mg membrane protein.
Take `COC(=O)[C@@H](N)CC(C)C` [Leucine methyl ester, L-leucine methyl ester]: the “Weight of cocoon shell” value with Bombyx mori larvae (Polyhybrid (28 × 15) × (10 × 14), control 0.32 ± 0.02) amounted to 0.46 ± 0.03 g; with Bombyx mori larvae (Race BG35, control 0.25 ± 0.02), 0.31 ± 0.01 g. The Percent of mortality amounted to 0% in the experiment with Bombyx mori larvae (Polyhybrid (28 × 15) × (10 × 14), control 19) and 20% in the experiment on Bombyx mori larvae (Race 21 Molucelli, control 30). In experiment [1], the Leucine uptake was 4500 ± 150 pmol/7s/mg membrane protein.
As for `COC(=O)[C@@H](N)CCSC` [Methionine methyl ester, L-methionine methyl ester], in experiment [1], the Leucine uptake was 4000 ± 180 pmol/7s/mg membrane protein.
On the same count and under the same terms, to `CCCC[C@H](N)C(=O)OC` [Norleucine methyl ester] belongs 3800 ± 100 pmol/7s/mg membrane protein.
